Measurements from ChEMBL document CHEMBL1201862, “PubChem BioAssay data set” (2004).
Where “and” joins values, the source holds several entries; their conditions need not be identical. Identical values can stand only once.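 Interpolation was linear, between the two tested concentrations surrounding the appropriate level; five concentrations were tested over 48 hours in 96-well plates. At the GI50, growth is halved.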 Calls of active or inactive are those of the source. Rule as the data show it: active = GI50 up to about 1.1 µM and inactive = higher.

Legend:
Assay in all cases: NCI tumour cell line growth inhibition, 48 h
A498 = tested on: A498
BT-549 = tested on: BT-549
HCT-15 = tested on: HCT-15
HOP-62 = tested on: HOP-62
K562 = tested on: K562
MCF7 = tested on: MCF7
NCI-H460 = tested on: NCI-H460
NCI-H522 = tested on: NCI-H522
SF-295 = tested on: SF-295
SF-539 = tested on: SF-539
SK-MEL-28 = tested on: SK-MEL-28
SK-OV-3 = tested on: SK-OV-3
SN12C = tested on: SN12C
SNB-75 = tested on: SNB-75
SW-620 = tested on: SW-620
T47D = tested on: T47D
UACC-257 = tested on: UACC-257
UO-31 = tested on: UO-31
OVCAR-4 = tested on: OVCAR-4

Row | Structure (SMILES) | GI50 (A498) | GI50 (BT-549) | GI50 (HCT-15) [µM] | GI50 (HOP-62) | GI50 (K562) | GI50 (MCF7) | GI50 (NCI-H460) | GI50 (NCI-H522) | GI50 (SF-295) | GI50 (SF-539) | GI50 (SK-MEL-28) | GI50 (SK-OV-3) | GI50 (SN12C) | GI50 (SNB-75) | GI50 (SW-620) | GI50 (T47D) | GI50 (UACC-257) | GI50 (UO-31) | GI50 (OVCAR-4)
1 | COc1cc(/C=C2\N=C(c3ccccc3)N(c3nc4c(OC)ccc(OC)c4s3)C2=O)ccc1O | > 100 µM (inactive) | 96.4 µM (inactive) | 70.1 | 90.8 µM (inactive) | 18.1 µM (inactive) | 17.3 µM (inactive) | 51.4 µM (inactive) | 31.1 µM (inactive) | 79.1 µM (inactive) | 57.9 µM (inactive) | > 100 µM (inactive) | > 100 µM (inactive) | > 100 µM (inactive) | 8.34 µM (inactive) | 42.2 µM (inactive) | 5.47 µM (inactive) | 38 µM (inactive) | 76.7 µM (inactive) | –
2 | O=[N+]([O-])c1ccc(OP(=O)(O)OCC2OC(CP(=O)(O)O)C(O)C2O)cc1 (stereo not drawn) | > 100 µM (inactive) | > 100 µM (inactive) | > 100 | > 100 µM (inactive) | > 100 µM (inactive) | > 100 µM (inactive) | > 100 µM (inactive) | > 100 µM (inactive) | > 100 µM (inactive) | > 100 µM (inactive) | > 100 µM (inactive) | – | > 100 µM (inactive) | – | > 100 µM (inactive) | > 100 µM (inactive) | > 100 µM (inactive) | > 100 µM (inactive) | > 100 µM (inactive)
3 | COC(=O)[C@H](Cc1ccccc1)NC(=O)CCCCCCC(=O)NO | – | > 100 µM (inactive) | 56.4 | – | 6.53 µM (inactive) | 46.1 µM (inactive) | 12.3 µM (inactive) | 4.68 µM (inactive) | 10.7 µM (inactive) | 20.6 µM (inactive) | > 100 µM (inactive) | 15.2 µM (inactive) | > 100 µM (inactive) | – | 11.6 µM (inactive) | 0.605 µM (active) | 10.1 µM (inactive) | 33.4 µM (inactive) | 39.8 µM (inactive)
4 | COC(CNC(=O)CNC(=O)c1ccc(C(F)(F)F)cc1)OC | – | > 100 µM (inactive) | > 100 | – | > 100 µM (inactive) | > 100 µM (inactive) | > 100 µM (inactive) | > 100 µM (inactive) | > 100 µM (inactive) | > 100 µM (inactive) | – | > 100 µM (inactive) | > 100 µM (inactive) | > 100 µM (inactive) | > 100 µM (inactive) | > 100 µM (inactive) | > 100 µM (inactive) | > 100 µM (inactive) | –
5 | Nc1nc(Nc2ccc(Cl)cc2)sc1C(=O)c1cccs1 | 19.1 µM (inactive) | 40.5 µM (inactive) | > 100 | 25.6 µM (inactive) | – | 33.4 µM (inactive) | 17.9 µM (inactive) | – | – | 21.6 µM (inactive) | > 100 µM (inactive) | 22.9 µM (inactive) | 21 µM (inactive) | – | 59 µM (inactive) | 77.8 µM (inactive) | > 100 µM (inactive) | 17 µM (inactive) | 25.9 µM (inactive)
6 | CN1C(=O)CN=C(c2ccccc2F)c2cc(N=C=S)ccc21 | 26.8 µM (inactive) | 58.5 µM (inactive) | 35.8 | > 100 µM (inactive) | – | 29.5 µM (inactive) | 36.6 µM (inactive) | 0.665 µM (active) | 52.8 µM (inactive) | – | – | > 100 µM (inactive) | 96.2 µM (inactive) | 33.5 µM (inactive) | 53.5 µM (inactive) | 56.8 µM (inactive) | 43.5 µM (inactive) | 17.1 µM (inactive) | 35.4 µM (inactive)
7 | Cc1ccc(S(=O)(=O)SC/C=C\CSS(=O)(=O)c2ccc(C)cc2)cc1 | 57.1 µM (inactive) and 49.4 µM (inactive) | 9.59 µM (inactive) | – | 49.2 µM (inactive) and 35.9 µM (inactive) | – | 3.51 µM (inactive) | 30.3 µM (inactive) and 35.6 µM (inactive) | – | 19.1 µM (inactive) and 37.7 µM (inactive) | – | – | 43.5 µM (inactive) and 55.8 µM (inactive) | 18.8 µM (inactive) and 9.71 µM (inactive) | 19.1 µM (inactive) and 36.6 µM (inactive) | – | 39.3 µM (inactive) | – | 55.2 µM (inactive) | –
8 | C=C1CC(C)(COc2ccc3c(C)cc(=O)oc3c2)OC1=O (stereo not drawn) | – | 2.31 µM (inactive) | 1.47 | 13.8 µM (inactive) | 0.313 µM (active) | 0.706 µM (active) | 5.3 µM (inactive) | 0.276 µM (active) | 4.34 µM (inactive) | 0.951 µM (active) | 2.72 µM (inactive) | 3.73 µM (inactive) | 3.86 µM (inactive) | 5.42 µM (inactive) | 0.431 µM (active) | 1.74 µM (inactive) | 1.25 µM (inactive) | 6.7 µM (inactive) | 2.62 µM (inactive)
9 | Cc1nc2cc(F)c(F)cc2[nH]c1=O | – | > 100 µM (inactive) | > 100 | > 100 µM (inactive) | > 100 µM (inactive) | > 100 µM (inactive) | > 100 µM (inactive) | – | > 100 µM (inactive) | > 100 µM (inactive) | > 100 µM (inactive) | > 100 µM (inactive) | > 100 µM (inactive) | > 100 µM (inactive) | > 100 µM (inactive) | > 100 µM (inactive) | > 100 µM (inactive) | > 100 µM (inactive) | > 100 µM (inactive)
10 | CCOC(=O)CSc1c(C(=O)OCC)c(=O)n(-c2ccccc2)c(=S)n1-c1ccccc1 | – | 8.49 µM (inactive) | 21.5 | > 100 µM (inactive) | 7.53 µM (inactive) | 15.2 µM (inactive) | 21.6 µM (inactive) | > 100 µM (inactive) | 36.7 µM (inactive) | – | > 100 µM (inactive) | 89.5 µM (inactive) | 29.6 µM (inactive) | 54.6 µM (inactive) | 9.42 µM (inactive) | > 100 µM (inactive) | 29.2 µM (inactive) | 26.9 µM (inactive) | 53.5 µM (inactive)
11 | O=c1[nH]c(=O)n(C2CC(O)C(CO)O2)cc1OCc1ccccc1 (stereo not drawn) | – | > 100 µM (inactive) | > 100 | > 100 µM (inactive) | > 100 µM (inactive) | > 100 µM (inactive) | > 100 µM (inactive) | > 100 µM (inactive) | – | – | > 100 µM (inactive) | > 100 µM (inactive) | > 100 µM (inactive) | > 100 µM (inactive) | – | > 100 µM (inactive) | > 100 µM (inactive) | > 100 µM (inactive) | > 100 µM (inactive)
12 | COC(=O)Cn1cnc2c(Cl)nc(Nc3ccccc3)nc21 | > 100 µM (inactive) | 86.5 µM (inactive) | 21.4 | > 100 µM (inactive) | 10.6 µM (inactive) | 76.2 µM (inactive) | 32.8 µM (inactive) | – | > 100 µM (inactive) | > 100 µM (inactive) | 27.4 µM (inactive) | > 100 µM (inactive) | 28.8 µM (inactive) | > 100 µM (inactive) | 65 µM (inactive) | > 100 µM (inactive) | 68.7 µM (inactive) | – | 87.3 µM (inactive)
13 | COc1cc2cc(C(=O)N3CC(CCl)c4c3cc(O)c3ccccc43)[nH]c2c(OC)c1OC (stereo not drawn) | < 0.005 µM (active) | < 0.005 µM (active) | < 0.005 | < 0.005 µM (active) | < 0.005 µM (active) | – | < 0.005 µM (active) | < 0.005 µM (active) | < 0.005 µM (active) | < 0.005 µM (active) | < 0.005 µM (active) | < 0.005 µM (active) | – | < 0.005 µM (active) | < 0.005 µM (active) | < 0.005 µM (active) | < 0.005 µM (active) | < 0.005 µM (active) | < 0.005 µM (active)
14 | O=C(/C=C/c1ccc2c(c1)OCO2)c1ccccc(=O)c1O | 29.9 µM (inactive) | 15.7 µM (inactive) | 3.85 | 20.9 µM (inactive) | 6.84 µM (inactive) | – | 3.28 µM (inactive) | 9.62 µM (inactive) | – | – | 21.2 µM (inactive) | – | 21.7 µM (inactive) | 12.3 µM (inactive) | 12 µM (inactive) | 20.9 µM (inactive) | 17.9 µM (inactive) | 13.6 µM (inactive) | 26.5 µM (inactive)
15 | O=C(O)CCC(/N=C(\C(=N\C(CCC(=O)O)C(=O)O)c1ccccc1)c1ccccc1)C(=O)O (stereo not drawn) | > 100 µM (inactive) | 90.2 µM (inactive) | > 100 | > 100 µM (inactive) | > 100 µM (inactive) | > 100 µM (inactive) | > 100 µM (inactive) | – | > 100 µM (inactive) | – | > 100 µM (inactive) | > 100 µM (inactive) | > 100 µM (inactive) | > 100 µM (inactive) | > 100 µM (inactive) | > 100 µM (inactive) | > 100 µM (inactive) | > 100 µM (inactive) | > 100 µM (inactive)
16 | NC(CCCCNC(=O)CNC(=O)OCc1ccccc1)C(=O)NC(CCCCNC(=O)CNC(=O)OCc1ccccc1)C(=O)NC(CCCCNC(=O)CNC(=O)OCc1ccccc1)C(=O)NC(CCCCNC(=O)CNC(=O)OCc1ccccc1)C(=O)NC(CCCCNC(=O)CNC(=O)OCc1ccccc1)C(=O)NC(CCCCNC(=O)CNC(=O)OCc1ccccc1)C(=O)O (stereo not drawn) | > 75 µM (inactive) | > 75 µM (inactive) | > 75 | > 75 µM (inactive) | > 75 µM (inactive) | > 75 µM (inactive) | > 75 µM (inactive) | 16.9 µM (inactive) | – | – | > 75 µM (inactive) | – | > 75 µM (inactive) | > 75 µM (inactive) | > 75 µM (inactive) | > 75 µM (inactive) | > 75 µM (inactive) | > 75 µM (inactive) | > 75 µM (inactive)
17 | Cc1ccc(S(=O)(=O)N2CCN(S(=O)(=O)c3ccc(C)cc3)Cc3ccccc3C2)cc1 | – | 64.9 µM (inactive) | > 100 | 20.5 µM (inactive) | > 100 µM (inactive) | 50.5 µM (inactive) | > 100 µM (inactive) | 21.6 µM (inactive) | 31 µM (inactive) | > 100 µM (inactive) | > 100 µM (inactive) | – | 53.2 µM (inactive) | – | > 100 µM (inactive) | 28.2 µM (inactive) | 49.8 µM (inactive) | > 100 µM (inactive) | 18.8 µM (inactive)
